Experimental data: patent US9927444B2, “Bone marrow-derived hematopoietic progenitor cells and endothelial progenitor cells as prognostic indicators for cancer” (Cornell University, priority 2011, dated 2018)

Key:
serum ceruloplasmin (Cp) = assay: Serum ceruloplasmin (Cp) levels / copper depletion, phase II TM trial; type: in vivo, human
Procedure: (§1) This phase II, open-label, single-arm study was conducted to assess patients with breast cancer at high risk for relapse. Patients were enrolled on an Institutional Review Board approved trial (NCT00195091, 0903-882, 0309006307) at Weill Cornell Medical College (WCMC) Iris Cantor Breast Cancer Center. Written informed consent was obtained prior to undergoing any study-specific procedures in accordance with the Declaration of Helsinki.
TM was administered in two phases, induction and maintenance: A) Induction: Patients self-administered TM 180 mg by mouth daily in 4 divided doses until serum Cp levels decreased to a target range of 5-16 mg/dL. One month of TM therapy comprised 1 cycle. Cp levels were tested every 2 weeks for the first 4 weeks and then weekly until target Cp was reached. When Cp levels were within target range, patients were switched to the maintenance phase. B) Maintenance: TM 100 mg taken daily in divided doses. Patients were followed every 2 weeks for 4 weeks to ensure Cp levels were stable then every 4 weeks. Dose reductions in 20 mg increments were allowed to minimize toxicity. Dose increases in 20 mg increments were allowed every 2 weeks to keep Cp levels in target range. […] Patients brought completed medication logs to each visit. The duration of the trial was 2 years.
The ITT population consisted of 39 patients. […] Target for copper depletion was defined as Cp below 17 mg/dL. Of those who took at least one dose of TM, 59% […] of patients were effectively copper depleted and 15 patients (37.5%) were unable to be copper depleted. Mean Cp of copper depleted pts and non-copper depleted patients was 13.5 and 22.3 mg/dL, respectively (FIG. 1a). Patients spent a median of 78% of time (range 58 to 100%) within target Cp levels during the study . . . . […] 91% of triple-negative patients successfully copper depleted compared to the hormone-receptor subtypes (38-43%) and HER2-positive subtypes (40-67%) (FIG. 7B).

[1] = system: VEGFR2+ endothelial progenitor cells (EPCs); assay: Enumeration of circulating EPCs by flow cytometry, phase II TM trial; type: in vivo, human
Procedure: (§2) Ten to 20 mL of venous blood were collected in EDTA-containing tubes and processed within 12 hours. Peripheral blood mononuclear cells were isolated by Ficoll density-gradient centrifugation. To quantitate circulating EPCs, cells were stained with CD133-PE (Miltenyi Biotec, Auburn, Calif.), VEGFR2-APC (R&D Systems, Minneapolis, Minn.), and CD45-PerCP (BD Biosciences, Franklin Lakes, N.J.). To quantitate HPCs, cells were stained with CD34-FITC (BD Biosciences), VEGFR1-APC (R&D Systems), and CD45-PerCP (BD Biosciences). An aliquot of cells was also stained with the appropriate isotype controls (mouse anti-human IgG1k). Samples were analyzed using a FACSCalibur flow cytometer (Bectin Dickinson, San Jose, Calif.). Three hundred thousand events were collected in the nucleated cell gate (excludes debris and platelets). Data analysis was done using FlowJo software (FlowJo, Ashland, Oreg.). A series of consecutive gates were made to include and exclude acquired events to quantitate specific populations such as CD45^+, CD34^+, VEGFR1^+. The number of EPCs and HPCs per mL of blood was calculated as follows: HPC/mL=(# HPC events/# lymphocyte events)×absolute lymphocyte count (lymphocytes/mL). EPC/mL=(# EPC events/# lymphocyte events)×absolute lymphocyte count (lymphocytes/mL). HPCs were defined as CD45^+, CD34^+, VEGFR1^+ (FIGS. 5A-5C). […]
(§3) PFS was analyzed using survival analysis techniques.

[2] = system: VEGFR1+ hematopoietic progenitor cells (HPCs); assay: Enumeration of circulating HPCs by flow cytometry, phase II TM trial; type: in vivo, human; settings: patients on TM
Procedure: as §2, §3

[3] = system: breast cancer at high risk for relapse; assay: Clinical outcomes (relapse, progression-free survival), phase II TM trial; type: in vivo, human
Procedure: as §1
Patients underwent imaging of investigator's choice, CT of chest, abdomen, and pelvis or PET/CT every 6 months and as needed to assess for relapse, using Response Evaluation Criteria in Solid Tumors (RECIST).
as §3

SDF1, VEGFR2, C-kit = assay: Plasma angiogenic factors and cytokine profiling, phase II TM trial; type: in vivo, human
Procedure: Plasma SDF-1 was detected by enzyme-linked immunosorbent assay (R&D Systems) according to manufacturer's protocol. Plasma levels of c-kit, VEGF, VEGFR1, VEGFR2, bFGF, and PIGF were detected by multiplex assay (Meso Scale Discovery, Gaithersburg, Md.) per manufacturer protocol.
as §3

[4] = in vivo
Source text: (§4) The National Cancer Institute—Common Toxicity Criteria for Adverse Events (CTCAE) version 3.0 were used for toxicity and adverse event reporting. In the event of grade 3/4 toxicity, dosing was held until recovery. Treatment was resumed at the investigator's discretion at 50% of the previous dose. […] In the event of grade 2 toxicity, the dose of TM was held until recovery and a new cycle could be initiated at 100%. If grade 2 toxicity recurred, dosing was held until recovery and the next cycle was resumed at 50%. All patients were available to be evaluated for toxicity.
(§5) The intent-to-treat (ITT) population consisted of all patients who received at least one dose of TM. […] The following outcomes were recorded: toxicity attributable to TM, time to progression of disease, number of circulating hemangiogenic progenitor cells, serum markers of angiogenesis. Descriptive statistics for demographic and angiogenic variables were calculated for all patients. […] All p-values were two-sided with statistical significance evaluated at the 0.05 alpha level. All analyses were performed in SPSS Version 18.0 (SPSS Inc., Chicago, Ill.).

[5] = system: advanced malignancy refractory to standard therapy; settings: phase I; cited from earlier work
[6] = system: advanced renal cell carcinoma; settings: 13 patients; cited from earlier work
malignant mesothelioma = settings: after adjuvant TM; doubling from 10; cited from earlier work
[7] = reversible, managed with dose reductions; cited from earlier work
[8] = stored under argon; cited from earlier work
[9] = Safety and tolerability (CTCAE version 3.0), phase II TM trial
Source text: as §4, §5

## [SH-].[SH-].[S]=[Mo]=[S] [TM, Tetrathiomolybdate]
Serum ceruloplasmin (Cp); 15 patients
  patients unable to be copper depleted: 37.5%
Serum ceruloplasmin (Cp); HER2-positive subtypes
  patients successfully copper depleted: 40-67%
Serum ceruloplasmin (Cp); ITT population, at a median of 4 weeks, median baseline Cp 29.7 mg/dL (range 21 to 47), range 7 to 26
  mean Cp level on TM: 14.2 mg/dL
Serum ceruloplasmin (Cp); copper depleted patients
  mean Cp of copper depleted pts: 13.5 mg/dL
Serum ceruloplasmin (Cp); hormone-receptor subtypes
  patients successfully copper depleted: 38-43%
Serum ceruloplasmin (Cp); non-copper depleted patients
  mean Cp of non-copper depleted patients: 22.3 mg/dL
Serum ceruloplasmin (Cp); range 58 to 100%
  median % of time within target Cp levels during the study: 78%
Serum ceruloplasmin (Cp); those who took at least one dose of TM, target Cp below 17 mg/dL, printed 23/40
  patients effectively copper depleted: 59%
Serum ceruloplasmin (Cp); triple-negative patients
  patients successfully copper depleted: 91%
[1]; at 1 year of TM therapy, median baseline 0.0398 (range 0-0.21), range 0-0.18
  median number of EPCs: 0.0363 cells/uL
[1]; majority of patients, when Cp was in the target range
  EPCs relative to baseline: maintained below baseline
[2]
  change in HPCs: no significant changes
[3]; all patients, 95% CI, 74.6-96.8%
  10-month PFS: 85.0%
[3]; first 12 months of study, six patients
  patients who developed recurrence: 15%
[3]; hormone-receptor-positive patients
  10-month PFS: 85.7%
[3]; stage 2 and 3 patients
  10-month PFS: 89.3%
[3]; stage 4 NED patients
  10-month PFS: 75.0%
[3]; triple-negative patients
  10-month PFS: 81.8%
SDF1, VEGFR2, C-kit; non-relapsed patients, decreased from 1870
  mean SDF1: 1811 pg/mL
SDF1, VEGFR2, C-kit; patients while on therapy
  change in SDF1, VEGFR2, and C-kit: did not significantly change
SDF1, VEGFR2, C-kit; patients who relapsed, increased from 2093
  mean SDF1: 3052 pg/mL
[4]
  treatment-related deaths: no treatment-related deaths
[5]
  induction of copper depletion: effective at inducing copper depletion
  patients maintaining stable disease for at least 90 days: 15 of 40
  tolerability: well-tolerated
[6]
  median duration of stable disease: 34.5 weeks
Malignant mesothelioma
  time to progression: 20 months
[7]
  patients with grade 3 or 4 hematologic toxicity: up to 40%
[8]
  stability when exposed to air: 8 weeks
[9]; 1 cycle, patient later diagnosed with B12 deficiency
  grade 3 anemia, cycles: 0.2%
[9]; 3 of 39 ITT patients
  patients with dose interruptions, delays, reductions, or omissions due to toxicity: 7.7%
[9]; 6 cycles
  grade 1 peripheral neuropathy, cycles: 1.4%
[9]; 9 patients
  grade ¾ neutropenia, patients: 23.1%
[9]; 13 cycles
  grade ¾ neutropenia, cycles: 3.1%
[9]; 14 patients
  grade ½ anemia, patients: 35.9%
[9]; 23 patients
  grade ½ neutropenia, patients: 59.0%
[9]; 29 cycles
  grade 1 fatigue, cycles: 6.8%
[9]; 50 cycles
  grade ½ anemia, cycles: 11.7%
[9]; 67 of 426 cycles
  grade ½ neutropenia, cycles: 15.7%
[9]; 79 cycles, resolved with a PPI in >90% of patients
  sulfurous eructations, cycles: 18.5%
[9]; 426 cycles in 39 patients, first 12 months
  overall tolerability: well tolerated
[9]; in vivo
  grade 3 or 4 non-hematologic toxicity: no grade 3 or 4 non-hematologic toxicity
  grade 4 anemia: no grade 4 incidences
[9]; managed with dose adjustment alone
  grade 1 or 2 gastrointestinal toxicity (nausea, vomiting or diarrhea): Eight
